Data on 104 molecules can be found in PubChem BioAssay AID540271 (Broad Institute, 2011).

Structures are written as SMILES. The source made the active and inactive calls. How the calls were made is not given here.

In this test the test system is S. cerevisiae expressing PfHSP40, growth rescue, plate reader. The experiment in a line: Yeast growth rescue from Plasmodium falciparum HSP40 toxicity, dose response confirmatory, plate reader (AID 540271).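 Further: yeast growth read after three days of incubation at 30 °C.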
As to `Cc1ccc(C)c(S(=O)(=O)N2CCN(Cc3ccc(O)c4ncccc34)CC2)c1`, the AC50 is 5.23 µM. Next, `Cc1ccccc1NC(=O)CSc1ccc(-c2ccccn2)nn1`: 4.42 µM; `Oc1c(Cl)c(Cl)c(Cl)c(Cl)c1Cl`: 2.89 µM.

For `COC(=O)COC(=O)c1ccccc1NC(=O)c1ccccc1`, the AC50 is 3.13 µM. Turning to `CCc1ccc([C@@H]2CC=C(C(=O)O)[C@H](c3ccc(Cl)cc3)N2S(=O)(=O)c2ccc(C)cc2)cc1`, the half-maximal activity concentration (AC50) is 5.39 µM.

Consider `S=C(NCc1ccco1)Nc1ccc(Oc2ccc(Cl)cc2)cc1`, for which the AC50 was 7.02 µM. For `COc1ccc(-c2sc3ccccc3c2C#Cc2cncn2C)cc1`, the AC50 was 6.77 µM. Regarding `N/C(Cc1ccc(Cl)cc1Cl)=N\OC(=O)c1ccccc1F`, the AC50 was 5.93 µM. Next, `O=[N+]([O-])c1ccc(S(=O)(=O)c2ccccc2)nc1`: 2.23 µM; `O=C(CC1CC2CCC1C2)Nc1nc(-c2ccccn2)cs1` (centres undefined): 5.1 µM. Next, `Cc1[nH]n(-c2cccc3ccccc23)c(=O)c1/C=N/NC(=O)c1cccc([N+](=O)[O-])c1`: 1.48 µM; `Oc1cccc2ccc(Nc3ccccn3)nc12`: 4.98 µM. Regarding `COc1cccc(C(C)=C2SC(=S)NC2=O)c1`, the AC50 was 9.37 µM. Turning to `O=C(Nc1nc(-c2ccccn2)cs1)c1ccc(Br)s1`, the AC50 is 0.584 µM. Next, `Cc1cc(Cl)ccc1C(=O)C1CCCN(C(=O)c2cncs2)C1` (centres undefined): 4.83 µM.

For `CCc1nc2ccccc2c(=O)n1NC(=O)c1c(O)c2ccccc2n(CC)c1=O`, the AC50 was 5.74 µM. As to `COc1cc(/C=C2\SC(=S)N(NS(=O)(=O)c3ccc(C)cc3)C2=O)ccc1O`, the AC50 was 7.05 µM. Turning to `Cc1oc2c(c1C(=O)c1ccccc1)C(=O)C(=O)c1ccccc1-2`, the AC50 is 5.65 µM.

Consider `CCOc1ccc(-n2c(O)c(/C=N/NC(=O)C3COc4ccccc4O3)c3ccccc3c2=O)cc1` (centres undefined), for which the AC50 was 4.11 µM. With `COc1ccc(-c2csc(NC(=O)c3ccccc3F)c2C(=O)O)cc1`, the AC50 is 3.69 µM. As for `O=[N+]([O-])c1ccc(S(=O)Cc2ccccc2)c([N+](=O)[O-])c1` (centres undefined), the AC50 was 1.75 µM. With `Cc1nc2ccc(NC(=O)Cc3ccc4c(c3)OCCO4)cc2s1`, the AC50 is 4.83 µM. On to `CCCCCCN1N=C(C)C(C(=O)c2ccc(Cl)cc2)C1=O` (centres undefined), for which the AC50 was 3.23 µM. Take `Nc1nc2sc3c(c2c(=O)s1)CCCC3`: the AC50 is 3.58 µM. Take `Cc1ccc(-c2nc3ccc(Cl)cc3c(=O)n2O)cc1`: the AC50 was 2.08 µM. In the case of `O=C(NCc1ccncc1)c1ccccc1Nc1ccc(SC(F)F)cc1` it was 5.31 µM; in that of `Cc1csc2nc(O)c(C(=O)NCCCc3ccccc3)c(=O)n12`, 4.55 µM; in that of `C=CCOC(Cn1ccnc1)c1ccc(Cl)cc1Cl` (centres undefined), 1.89 µM. Take `C[C@@]12CCC3[C@@](CCC4[C@@]3(C)CCC[C@@]4(C)C(=O)NCc3ccccc3)(CC1=O)C2` (some centres undefined): the AC50 is 1.43 µM. For `CCCCCCCCCCCCCC(=O)NO`, the AC50 was 0.727 µM. Consider `Nc1cc2nc3ccccc3oc-2cc1=O`, for which the half-maximal activity concentration (AC50) was 1.52 µM. In the case of `CC(C)(C)n1nc(-c2ccc(Cl)cc2)c2c(N)ncnc21`, the AC50 is 1.56 µM. Turning to `CCCCNC(=S)N/N=C1\CCCCc2ccccc21`, the AC50 is 10.3 µM. `Clc1nc(-c2ccccn2)nc2scc(-c3ccccc3)c12`: the AC50 is 5.78 µM. Regarding `CNc1cc(CSC)nc(SCc2ccc(Cl)cc2Cl)n1`, the AC50 was 4.18 µM. In the case of `CC1CCc2c(C(=O)Nc3ccccn3)csc2C1` (centres undefined), the AC50 was 9.29 µM. Turning to `COc1ccc(C(=O)On2c(-c3ccc(Br)cc3)nc3ccccc3c2=O)cc1`, the AC50 is 4.13 µM.

On to `CC(C)c1cc(-c2cc(C(=O)NCc3ccccc3)on2)nc(NCC2CC2)n1`, for which the AC50 was 5.24 µM. In the case of `CCC(C)Sc1cccc(-c2nc3ccccn3c2NCc2ccccc2)c1` (centres undefined), the AC50 is 7.22 µM. As for `CC(C)(C)C(=O)C(Oc1ccc(Cl)cc1)n1cncn1` (centres undefined), the AC50 is 4.7 µM.

Regarding `O=C(NOC(=O)c1ccccc1)c1ccccc1`, the AC50 was 2.11 µM. As to `c1ccc(CSc2ccc(-c3ccccn3)nn2)nc1`, the AC50 was 4.49 µM.

As to `O=c1[nH]cc(F)c(=O)[nH]1`, the AC50 was 0.562 µM. Turning to `CCCCC(=O)NC(c1ccc(OC)c(OC)c1)c1ccc2cccnc2c1O` (centres undefined), the AC50 was 1.83 µM. Turning to `CC1(C)C2CCC1(C)C(OC(=O)c1ccc(O)cc1)C2` (centres undefined), the concentration at half-maximal activity (AC50) was 4.38 µM. Turning to `O=C(N/N=C/c1c(O)n(Cc2ccccc2)c(=O)c2ccccc12)c1cccnc1`, the AC50 is 6.92 µM. Take `Cc1ccc2c(c1C)-c1c(ccc(C)c1C)C(=O)C2=O`: the AC50 is 1.48 µM. In the case of `CCCCC(=O)NC(=S)NNC(=O)CCc1ccccc1`, the AC50 is 5.21 µM. On to `CCN(CC)C(=O)CSc1ncnc2sc(-c3ccccc3)cc12`, for which the AC50 is 8.72 µM. As to `CCCCCCCCCCOC(=O)Cn1c(COc2ccc(OC)cc2)[n+](C)c2ccccc21`, the AC50 was 6.37 µM. Consider `CCCC1CCC(c2ccc(/C(N)=N/O)cc2)CC1` (centres undefined), for which the AC50 is > 12 µM (inactive). `O=C(NCC1CC1(Cl)Cl)Nc1ccc(Cl)c(Cl)c1` (centres undefined): the AC50 is 5.73 µM. Next, `O=C1c2ccccc2NC(c2ccc(-c3ccc(C(F)(F)F)cc3)o2)N1O` (centres undefined): 2.4 µM; `O=C(Oc1c(Cl)cc(Cl)c2cccnc12)c1cccs1`: 1.94 µM. `O=c1c2ccccc2nc(-c2ccc(-c3ccccc3)cc2)n1-c1ccncc1`: the AC50 was 6.21 µM. With `Cc1ccccc1CN(C)CCS(=O)(=O)c1cc(Cl)ccc1Cl`, the AC50 was > 12 µM (inactive). Turning to `Cc1ccc(NC(=S)Nc2cccc3cnccc23)cc1C`, the AC50 is > 12 µM (inactive). In the case of `O=S(=O)(Nc1nc2ccccc2nc1N1CCN(c2ccccn2)CC1)c1ccc(Cl)cc1` it was 1.79 µM; in that of `C=CCNC(=S)N1CCC(Cc2ccccc2)CC1`, 11.3 µM. Take `COc1ccccc1CNC(=O)CSc1ccc(-c2ccccn2)nn1`: the AC50 is 5.89 µM. For the molecule `O=c1c2ccccc2nc(-c2cccc(Cl)c2)n1O`, the AC50 was 3.21 µM. As for `Cc1ccc(C)c(/C=C/C(=O)c2ccccc(=O)c2O)c1`, the AC50 is 3.17 µM.

On to `Cn1nnnc1N=N/C(=N/Nc1ccccc1)c1ccccc1`, for which the AC50 is 1.85 µM. As to `O=C(Sc1cccc2cccnc12)c1ccccc1Br`, the AC50 was 6.63 µM. In the case of `CC(C)CNC(=O)COC(=O)c1ccc([N+](=O)[O-])cc1Cl` it was > 12 µM (inactive); in that of `Cc1ccc(NC(=S)c2nc3ccccc3[nH]2)c(C)c1`, 6.15 µM; in that of `CCCOc1ccc(N2C(=O)CC(N3CCC(C(=O)OCC)CC3)C2=O)cc1` (centres undefined), 6.34 µM. For `COc1ccc(O)c(C(=O)CC(=O)c2ccccc2C)c1`, the AC50 was 6.31 µM. In the case of `COc1ccc2c(c1)OC[C@H]1[C@H]2N2C(=O)c3cc(C)ccc3NC(=O)[C@@]2(C)[C@H]1c1ccccc1`, the AC50 was 6.11 µM. In the case of `CCc1ccc(OCc2n[nH]c(=S)n2Cc2ccccc2)cc1` it was 5.29 µM; in that of `c1ccc(C(=NNc2nc3ccccc3s2)c2ccccn2)cc1`, 2.52 µM; in that of `Cc1cc([N+](=O)[O-])c(NC2CCCCC2)c([N+](=O)[O-])c1`, 9.82 µM.

`Oc1ccc(Cl)cc1CNc1cccc2cccnc12`: the AC50 is 6.73 µM. For `O=C(CN1CC[n+]2c(-c3cccs3)csc21)c1ccc(-c2ccccc2)cc1`, the AC50 was 7.25 µM. With `c1ccc(Nc2cccc(Nc3ccccc3)c2)cc1`, the AC50 is 5.81 µM.

Consider `O=C(N[C@@H](Cc1ccccc1)C(=O)CCl)OCc1ccccc1`, for which the AC50 was 2.19 µM. In the case of `CC(C)(C)C(O)C(Cc1ccccc1Cl)n1cncn1` (centres undefined), the AC50 was 0.215 µM.

In the case of `O=C(Nc1ccc(C2=NCCN2)cc1)c1ccc(C(=O)Nc2ccc(C3=NCCN3)cc2)c(Cl)c1`, the AC50 was 4.17 µM.

As to `CC(NC(=S)NC1CCC(C(C)(C)C)CC1)c1ccccc1` (centres undefined), the AC50 is 6.86 µM. Turning to `Cc1ccc(C(C)(C)C)cc1S(=O)(=O)Nc1ncnc2sccc12`, the AC50 was 2.83 µM.

Take `CC(=O)C1=C(c2cccc([N+](=O)[O-])c2)N(C(C)=O)n2c(C)nnc2S1`: the AC50 is 2.7 µM.

Consider `CCn1nc(/C=C/c2ccccc2)nc2c(=O)n(C)c(=O)nc1-2`, for which the AC50 was 2.36 µM.

For the molecule `Clc1ccc(C(Cn2ccnc2)OCc2c(Cl)cccc2Cl)c(Cl)c1` (centres undefined), the half-maximal activity concentration (AC50) was 0.241 µM. Turning to `Clc1ccc(C2=NCCN2)cc1`, the AC50 is 2.38 µM. As to `O=C1c2ccccc2C(=O)c2c1oc(C(F)(F)F)c2C(=O)c1ccccc1`, the AC50 was 1 µM. Consider `Cc1onc(-c2ccccc2)c1C(=O)NC(=S)NNC(=O)c1cc(-c2ccc(F)cc2)n[nH]1`, for which the AC50 was > 4.2 µM (inactive). As to `CC(=O)Oc1ccc(OC(C)=O)c(SCCCCCCl)c1`, the AC50 is 7.6 µM. For the molecule `CCOC(=O)c1ccc(-c2ccc(C3Nc4ccccc4C(=O)N3O)o2)cc1` (centres undefined), the AC50 was 3.91 µM. As to `COc1ccc(-c2cc(C(=O)N3CCN(c4ccccc4F)CC3)c3ccccc3n2)c(OC)c1`, the AC50 is 5.68 µM.

In the case of `Cc1ccc(COc2ccc(Br)cc2/C=N/O)cc1`, the AC50 was 7.92 µM. On to `COc1cccc(/C=N/NC(=O)c2cc(-c3cccn3C)n[nH]2)c1O`, for which the AC50 is 10.2 µM. Next, `Nc1cc2c3ccccc3ccc2c2ccccc12`: 2.13 µM; `Oc1ccccc1-c1nnc(SCCN2CCOCC2)n1Cc1ccccc1`: 5.94 µM; `Oc1ccccc1-c1cc(-c2ccc3c(c2)OCCO3)n[nH]1`: 5.24 µM. For the molecule `CCCNC(=O)c1ccc2c(=O)c(O)c(-c3ccc(F)cc3)[nH]c2c1`, the AC50 is 6.08 µM. As for `COc1cccc(NC=C2C(=O)OC3(CCCCC3)OC2=O)c1`, the concentration at half-maximal activity (AC50) is 9.91 µM. Consider `Cc1ccsc1/C=C/c1ccc2cccc(O)c2n1`, for which the AC50 is 3.48 µM. As for `Oc1c(Br)cc(-c2ccccc2)cc1Br`, the AC50 is 4.93 µM.

With `c1ccc(-c2ccc(SCc3cccnc3)nn2)nc1`, the AC50 is > 12 µM (inactive). Take `O=C1c2cccc(Cl)c2C(=O)c2c1cccc2N1CCCC1`: the AC50 was 4.9 µM. On to `O=c1cnn([C@@H]2O[C@H](CO)[C@@H](O)[C@H]2O)c(=O)[nH]1`, for which the AC50 was > 12 µM (inactive).

As to `O/N=C/c1cc(Br)ccc1OCc1cccc(F)c1`, the AC50 was 6.89 µM.

For the molecule `Clc1cccc(CON/C=N/c2ncnc3sccc23)c1`, the AC50 was 3.74 µM. As to `CC1CCCCC1NC(=O)/C(C#N)=C/c1ccccc1F` (centres undefined), the AC50 is 5.7 µM.
